In US7323118B2, “Composition of hypochlorous acid and its applications” (Aquilabs S.A., priority 2001, dated 2008):

Legend:
Assay in all cases: Cultures and tests of inhibition (culture agar, Petri box)
Assay type in all cases: cell-based
Settings in all cases: added to the culture agar; inhibition haloes in the Petri box
staphylococcus aureus = tested on: staphylococcus aureus
E. Coli = tested on: E. Coli
pseudomona = tested on: pseudomona

Measured: inhibition of growth

OCl [Hypochlorous acid]
full inhibition: all assays above
